This note sets out measurements from ChEMBL document CHEMBL3352536, “Antiparasitic compounds may potentially treat malaria and other parasitic diseases” (ACS Med Chem Lett, 2014).

Assay [1] has as its system Plasmodium falciparum. As to the kind of experiment: Antiplasmodial activity against Plasmodium falciparum infected in human blood cells assessed as inhibition of proliferation. In kind it is functional, organism-based.
In assay [2] the test system is Plasmodium yoelii. The experiment in a line: Antiplasmodial activity against Plasmodium yoelii infected in liver cells assessed as inhibition of proliferation. In kind it is functional, organism-based.

As to `CN(C(=O)c1cn2c(-c3ccc(C(N)=O)cc3)cnc2cn1)c1ccc(F)cc1`, the results for the EC50 in assay [1] and in assay [2] were 74 nM and 56 nM, respectively.

Take `Cc1ccc(N(C)C(=O)c2cn3c(-c4ccc(C(F)(F)F)cc4)cnc3cn2)nc1`: the EC50 in assay [1] worked out at 199 nM; in assay [2], 1110 nM.

As to `CN(Cc1cn2c(-c3ccc(C(N)=O)cc3)cnc2cn1)c1ccc(F)cc1`, the values for the concentration giving a half-maximal response (EC50) in assay [1] and in assay [2] were 30 nM and 7 nM, respectively.

Take `CN(Cc1cn2c(-c3ccc(C(N)=O)cc3)cnc2cn1)c1ccc(Cl)cc1`: the half-maximal effective concentration (EC50) in assay [1] worked out at 9 nM; in assay [2], 11 nM.

What is called EC50 is the concentration at which the effect is half-maximal.
